Converted amounts (≈) assume the structure as drawn. Where two headings read alike, the source gives them in different places.
How the values were obtained:
[1] = system: human hepatocarcinoma cell line ATCC HB-8065 (HepG2); assay: Human cell viability (CellTiter-Glo); format: cell-based; settings: HepG2 cells, 24 h incubation, CellTiter-Glo luminescence, 0.2-100 μM, read-out: IC50 values against the HepG2 cell line
Summary of the method: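 Cytotoxicity was read as CellTiter-Glo luminescence after 24 h compound exposure at 37° C., 5% CO2. Final concentrations spanned 0.2-100 μM in two-fold steps, in 1% FBS MEM with 1% DMSO, on cells plated a day earlier at 20,000/well. IC50 came from 4-parameter logistic regression.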

[2] = system: E. coli NCTC 13441 (UPEC); assay: MIC broth microdilution; format: cell-based, Escherichia coli; settings: for MIC: Escherichia coli, NCTC13441
Summary of the method: (§1)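 Following CLSI standards, susceptibility is measured in cation-adjusted Müller-Hinton broth at 37° C without added CO2 for 20-24 hours. Test concentrations run 0.39-200 μM final in doubling steps, DMSO capped at 2%. MIC: lowest concentration without bacterial growth.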

[3] = system: Staphylococcus aureus ATCC 35556 (SA); assay: MIC broth microdilution; format: cell-based; settings: for MIC: ATCC35556
Summary of the method: as §1

[4] = system: Escherichia coli K12 (EC); assay: MIC broth microdilution; format: cell-based
Summary of the method: as §1

[5] = system: Pseudomonas aeruginosa ATCC 33359 (PA); assay: MIC broth microdilution; format: cell-based; settings: for MIC: ATCC33359
Summary of the method: as §1

[6] = system: Acinetobacter baumannii ATCC 17978 (AB); assay: MIC broth microdilution; format: cell-based; settings: for MIC: ATCC17978
Summary of the method: as §1

[7] = system: Klebsiella pneumoniae ATCC 10031 (KP2); assay: MIC broth microdilution; format: cell-based; settings: for MIC: ATCC10031
Summary of the method: (§2)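 Planktonic MIC determination: compound tested two-fold from 200 down to 0.39 μM final with DMSO capped at 2% final, cation-adjusted Müller-Hinton broth, 37° C for 20-24 hours. Endpoint is the lowest concentration inhibiting growth.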

[8] = system: Klebsiella pneumoniae ATCC 51504 (KP4); assay: MIC broth microdilution; format: cell-based; settings: ATCC51504
Summary of the method: as §1

[9] = system: K. pneumoniae H154600588 (KP8); assay: MIC broth microdilution; format: cell-based, Klebsiella pneumoniae; settings: for MIC: Klebsiella pneumoniae
Summary of the method: as §2

[10] = system: K. pneumoniae NCTC 13438 (KP1); assay: MIC broth microdilution; format: cell-based, Klebsiella pneumoniae; settings: for MIC: Klebsiella pneumoniae, NCTC13438
Summary of the method: as §2

[11] = system: K. pneumoniae H154680676 (KP5); assay: MIC broth microdilution; format: cell-based, Klebsiella pneumoniae; settings: for MIC: Klebsiella pneumoniae
Summary of the method: as §2

[12] = system: K. pneumoniae ATCC 700603 (KP3); assay: MIC broth microdilution; format: cell-based, Klebsiella pneumoniae; settings: for MIC: Klebsiella pneumoniae, ATCC700603
Summary of the method: as §2

[13] = system: K. pneumoniae H154300688 (KP9); assay: MIC broth microdilution; format: cell-based, Klebsiella pneumoniae; settings: for MIC: Klebsiella pneumoniae
Summary of the method: as §2

[14] = system: K. pneumoniae H154640784 (KP7); assay: MIC broth microdilution; format: cell-based, Klebsiella pneumoniae; settings: for MIC: Klebsiella pneumoniae
Summary of the method: as §2

[15] = system: K. pneumoniae H151440671 (KP10); assay: MIC broth microdilution; format: cell-based, Klebsiella pneumoniae; settings: for MIC: Klebsiella pneumoniae
Summary of the method: as §2

[16] = system: K. pneumoniae H154020667 (KP6); assay: MIC broth microdilution; format: cell-based, Klebsiella pneumoniae; settings: for MIC: Klebsiella pneumoniae
Summary of the method: as §2

[17] = system: Salmonella typhimurium XNAA5 (St); assay: MIC broth microdilution; format: cell-based
Summary of the method: as §1

[18] = system: Enterobacter cloacae DSM 30054 (Ed); assay: MIC broth microdilution; format: cell-based
Summary of the method: as §2

[19] = system: Serratia marcescens SL1344 (Sm); assay: MIC broth microdilution; format: cell-based
Summary of the method: as §1

| Compound | IC50 ([1]; Homo sapiens) [µM] | MIC [2] [µM] | MIC [3] [µM] | MIC [4] [µM] | MIC [5] [µM] | MIC [6] [µM] | MIC [7] [µM] | MIC [8] [µM] | MIC [9] [µM] | MIC [10] [µM] | MIC [11] [µM] | MIC [12] [µM] | MIC [13] [µM] | MIC [14] [µM] | MIC [15] [µM] | MIC [16] [µM] | MIC UPEC [2] | MIC SA [3] | MIC EC [4] | MIC PA [5] | also measured |
| --- | --- | --- | --- | --- | --- | --- | --- | --- | --- | --- | --- | --- | --- | --- | --- | --- | --- | --- | --- | --- | --- |
| COCCN1CCOc2ccc(-c3nc(N)[nH]c3-c3ccnc(C)c3)cc21 [Example 64, 4-(4-(2-Methoxyethyl)-3,4-dihydro-2H-benzo[b][1,4]oxazin-6-yl)-5-(2-methylpyridin-4-yl)-1H-imidazol-2-amine] | > 100 | ≤ 1 | > 100 | 1 to 10 (≈ 0.365 to 3.65 µg/mL) | > 100 | > 100 | ≤ 1 | 1 to 10 (≈ 0.365 to 3.65 µg/mL) | 1 to 10 (≈ 0.365 to 3.65 µg/mL) | 1 to 10 (≈ 0.365 to 3.65 µg/mL) | 1 to 10 (≈ 0.365 to 3.65 µg/mL) | 1 to 10 (≈ 0.365 to 3.65 µg/mL) | 1 to 10 (≈ 0.365 to 3.65 µg/mL) | 1 to 10 (≈ 0.365 to 3.65 µg/mL) | 1 to 10 (≈ 0.365 to 3.65 µg/mL) | 1 to 10 (≈ 0.365 to 3.65 µg/mL) | – | – | – | – | – |
| Cc1cc(-c2[nH]c(N)nc2-c2ccc3c(c2)OCCO3)ccn1 [Example 32, 4-(2,3-Dihydrobenzo[b][1,4]dioxin-6-yl)-5-(2-methylpyridin-4-yl)-1H-imidazol-2-amine] | – | – | – | – | – | – | – | 1 to 10 (≈ 0.308 to 3.08 µg/mL) | – | – | – | – | – | – | – | – | A (an MIC (μM) of less or equal to 1 is assigned the letter A) | D (a MIC of over 100 is assigned the letter D) | A (an MIC (μM) of less or equal to 1 is assigned the letter A) | D (a MIC of over 100 is assigned the letter D) | IC50 [1]: > 100 µM; MIC AB [6]: D (a MIC of over 100 is assigned the letter D); MIC KP2 [7]: A (an MIC (μM) of less or equal to 1 is assigned the letter A); MIC KP8 [9]: B (a MIC of from 1 to 10 is assigned the letter B); MIC KP1 [10]: B (a MIC of from 1 to 10 is assigned the letter B); MIC KP5 [11]: B (a MIC of from 1 to 10 is assigned the letter B); MIC KP3 [12]: B (a MIC of from 1 to 10 is assigned the letter B); MIC KP9 [13]: B (a MIC of from 1 to 10 is assigned the letter B); MIC KP7 [14]: B (a MIC of from 1 to 10 is assigned the letter B); MIC KP10 [15]: B (a MIC of from 1 to 10 is assigned the letter B); MIC KP6 [16]: B (a MIC of from 1 to 10 is assigned the letter B) |
| Cc1cc(-c2[nH]c(N)nc2-c2ccc3c(c2)N(S(C)(=O)=O)CCO3)ccn1 [Example 55, 5-(2-Methylpyridin-4-yl)-4-(4-(methylsulfonyl)-3,4-dihydro-2H-benzo[b][1,4]oxazin-6-yl)-1H-imidazol-2-amine] | > 100 | 1 to 10 (≈ 0.385 to 3.85 µg/mL) | > 100 | 1 to 10 (≈ 0.385 to 3.85 µg/mL) | > 100 | > 100 | ≤ 1 | 1 to 10 (≈ 0.385 to 3.85 µg/mL) | 1 to 10 (≈ 0.385 to 3.85 µg/mL) | 10 to 100 (≈ 3.85 to 38.5 µg/mL) | 1 to 10 (≈ 0.385 to 3.85 µg/mL) | 1 to 10 (≈ 0.385 to 3.85 µg/mL) | 1 to 10 (≈ 0.385 to 3.85 µg/mL) | 1 to 10 (≈ 0.385 to 3.85 µg/mL) | 1 to 10 (≈ 0.385 to 3.85 µg/mL) | 1 to 10 (≈ 0.385 to 3.85 µg/mL) | – | – | – | – | – |
| NC[C@H]1O[C@H](O[C@H]2[C@H](O)[C@@H](O[C@H]3O[C@H](CO)[C@@H](O)[C@H](N)[C@H]3O)[C@H](N)C[C@@H]2N)[C@H](N)C[C@@H]1O [TOB] | – | – | – | – | – | – | – | – | – | – | – | – | – | – | – | – | D (a MIC of over 100 is assigned the letter D) | B (a MIC of from 1 to 10 is assigned the letter B) | B (a MIC of from 1 to 10 is assigned the letter B) | B (a MIC of from 1 to 10 is assigned the letter B) | MIC St [17]: B (a MIC of from 1 to 10 is assigned the letter B); MIC AB [6]: B (a MIC of from 1 to 10 is assigned the letter B); MIC Ecl [18]: C (a MIC of from 10 to 100 is assigned the letter C); MIC Sm [19]: A (an MIC (μM) of less or equal to 1 is assigned the letter A) |
| Cc1cc(-c2[nH]c(N)nc2-c2ccc3c(c2)N(C(C)C)CCO3)ccn1 [Example 93, 4-(4-isopropyl-3,4-dihydro-2H-benzo[b][1,4]oxazin-6-yl)-5-(2-methylpyridin-4-yl)-1H-imidazol-2-amine] | 25 to 100 | ≤ 1 | > 100 | ≤ 1 | > 100 | > 100 | ≤ 1 | ≤ 1 | 1 to 10 (≈ 0.349 to 3.49 µg/mL) | 1 to 10 (≈ 0.349 to 3.49 µg/mL) | ≤ 1 | 1 to 10 (≈ 0.349 to 3.49 µg/mL) | 1 to 10 (≈ 0.349 to 3.49 µg/mL) | 1 to 10 (≈ 0.349 to 3.49 µg/mL) | ≤ 1 | ≤ 1 | – | – | – | – | – |
